How the values were obtained:
Format in all cases: functional
[1] = system: IGROV-1; experiment: Growth inhibition of human IGROV1 cells assessed as cell growth at 10^-7 M by sulforhodamine B assay; settings: read-out: Activity
[2] = system: K562; experiment: Growth inhibition of human K562 cells assessed as cell growth at 10^-7 M by sulforhodamine B assay; settings: read-out: Activity
[3] = Growth inhibition of human HCC2998 cells assessed as cell growth at 10^-6 M by sulforhodamine B assay; settings: HCC 2998, read-out: Activity
[4] = system: MCF7; experiment: Growth inhibition of human MCF7 cells by sulforhodamine B assay
[5] = Growth inhibition of human NCI-ADR-RES cells assessed as cell growth at 10^-4 M by sulforhodamine B assay; settings: read-out: Activity
[6] = system: SK-MEL-5; experiment: Growth inhibition of human SK-MEL-5 cells assessed as cell growth at 10^-4 M by sulforhodamine B assay; settings: read-out: Activity
[7] = system: UO-31; experiment: Growth inhibition of human UO31 cells by sulforhodamine B assay
[8] = system: DU-145; experiment: Growth inhibition of human DU145 cells assessed as cell growth at 10^-6 M by sulforhodamine B assay; settings: read-out: Activity
[9] = system: SW-620; experiment: Growth inhibition of human SW620 cells assessed as cell growth at 10^-7 M by sulforhodamine B assay; settings: read-out: Activity
[10] = system: OVCAR-4; experiment: Growth inhibition of human OVCAR4 cells assessed as cell growth at 10^-7 M by sulforhodamine B assay; settings: read-out: Activity
[11] = system: ACHN; experiment: Growth inhibition of human ACHN cells assessed as cell growth at 10^-8 M by sulforhodamine B assay; settings: read-out: Activity
[12] = system: KM12; experiment: Growth inhibition of human KM12 cells assessed as cell growth at 10^-7 M by sulforhodamine B assay; settings: read-out: Activity
[13] = system: HOP-92; experiment: Growth inhibition of human HOP92 cells assessed as cell growth at 10^-4 M by sulforhodamine B assay; settings: read-out: Activity
[14] = system: SK-MEL-5; experiment: Growth inhibition of human SK-MEL-5 cells assessed as cell growth at 10^-6 M by sulforhodamine B assay; settings: read-out: Activity
[15] = system: MDA-MB-468; experiment: Growth inhibition of human MDA-MB-468 cells assessed as cell growth at 10^-6 M by sulforhodamine B assay; settings: read-out: Activity
[16] = system: HL-60(TB); experiment: Growth inhibition of human HL-60(TB) cells assessed as cell growth at 10^-6 M by sulforhodamine B assay; settings: read-out: Activity
[17] = system: COLO 205; experiment: Growth inhibition of human COLO205 cells assessed as cell growth at 10^-4 M by sulforhodamine B assay; settings: read-out: Activity
[18] = system: OVCAR-4; experiment: Growth inhibition of human OVCAR4 cells by sulforhodamine B assay
[19] = Growth inhibition of human NCI-ADR-RES cells assessed as cell growth at 10^-6 M by sulforhodamine B assay; settings: read-out: Activity
[20] = system: MCF7; experiment: Growth inhibition of human MCF7 cells assessed as cell growth at 10^-4 M by sulforhodamine B assay; settings: read-out: Activity
[21] = system: 786-0; experiment: Growth inhibition of human 786-0 cells assessed as cell growth at 10^-4 M by sulforhodamine B assay; settings: read-out: Activity
[22] = system: HOP-62; experiment: Growth inhibition of human HOP62 cells assessed as cell growth at 10^-7 M by sulforhodamine B assay; settings: read-out: Activity
[23] = system: SF-295; experiment: Growth inhibition of human SF295 cells by sulforhodamine B assay
[24] = system: BT-549; experiment: Growth inhibition of human BT549 cells assessed as cell growth at 10^-4 M by sulforhodamine B assay; settings: read-out: Activity
[25] = system: MCF7; experiment: Growth inhibition of human MCF7 cells assessed as cell growth at 10^-7 M by sulforhodamine B assay; settings: read-out: Activity
[26] = system: CCRF-CEM; experiment: Growth inhibition of human CCRF-CEM cells assessed as cell growth at 10^-8 M by sulforhodamine B assay; settings: read-out: Activity
[27] = system: MOLT-4; experiment: Growth inhibition of human MOLT4 cells by sulforhodamine B assay
[28] = system: T47D; experiment: Growth inhibition of human T47D cells by sulforhodamine B assay
[29] = system: HCT-15; experiment: Growth inhibition of human HCT15 cells assessed as cell growth at 10^-4 M by sulforhodamine B assay; settings: read-out: Activity
[30] = system: NCI-H226; experiment: Growth inhibition of human NCI-H226 cells assessed as cell growth at 10^-7 M by sulforhodamine B assay; settings: read-out: Activity
[31] = system: CAKI-1; experiment: Growth inhibition of human CAKI-1 cells assessed as cell growth at 10^-8 M by sulforhodamine B assay; settings: read-out: Activity
[32] = system: A549; experiment: Growth inhibition of human A549/ATCC cells assessed as cell growth at 10^-6 M by sulforhodamine B assay; settings: read-out: Activity
[33] = system: HOP-92; experiment: Growth inhibition of human HOP92 cells assessed as cell growth at 10^-6 M by sulforhodamine B assay; settings: read-out: Activity
[34] = system: NCI-H322M; experiment: Growth inhibition of human NCI-H322M cells assessed as cell growth at 10^-4 M by sulforhodamine B assay; settings: read-out: Activity
[35] = system: UO-31; experiment: Growth inhibition of human UO31 cells assessed as cell growth at 10^-7 M by sulforhodamine B assay; settings: read-out: Activity
[36] = system: SN12C; experiment: Growth inhibition of human SN12C cells assessed as cell growth at 10^-7 M by sulforhodamine B assay; settings: read-out: Activity
[37] = system: MDA-MB-231; experiment: Growth inhibition of human MDA-MB-231 cells assessed as cell growth at 10^-7 M by sulforhodamine B assay; settings: read-out: Activity
[38] = system: HT-29; experiment: Growth inhibition of human HT-29 cells assessed as cell growth at 10^-8 M by sulforhodamine B assay; settings: read-out: Activity
[39] = system: OVCAR-4; experiment: Growth inhibition of human OVCAR4 cells assessed as cell growth at 10^-4 M by sulforhodamine B assay; settings: read-out: Activity
[40] = system: MDA-MB-435; experiment: Growth inhibition of human MDA-MB-435 cells by sulforhodamine B assay
[41] = read-out: LC50 (the source's name)
[42] = read-out: pLC50 (the source's name) (converted)

SMILES: CC(C)=CC(=O)O[C@@H]1CC(C)(C)C[C@H]2C3=CC[C@@H]4[C@@]5(C)CCC(=O)C(C)(C)[C@@H]5CC[C@@]4(C)[C@]3(C)CC[C@@]12C(=O)O
- growth at 0.1 µM [1]: 108%
- growth at 0.1 µM [2]: 95%
- growth at 1 µM [3]: 88%
- GI50 ([4]; read-out: GI50): 3.29 µM
- CC50 [4, 41]: > 100 µM
- TGI ([4]; read-out: TGI): > 100 µM
- GI50 ([4]; read-out: pGI50 (converted)): 3.31 µM
- CC50 [4, 42]: > 100 µM
- TGI ([4]; read-out: pTGI (converted)): > 100 µM
- growth at 100 µM [5]: 14%
- growth at 100 µM [6]: -78%
- GI50 ([7]; read-out: GI50): 2.95 µM
- CC50 [7, 41]: > 100 µM
- TGI ([7]; read-out: TGI): 32.2 µM
- GI50 ([7]; read-out: pGI50 (converted)): 2.95 µM
- CC50 [7, 42]: > 100 µM
- TGI ([7]; read-out: pTGI (converted)): 32.4 µM
- growth at 1 µM [8]: 90%
- growth at 0.1 µM [9]: 97%
- growth at 0.1 µM [10]: 97%
- growth at 0.01 µM [11]: 97%
- growth at 0.1 µM [12]: 85%
- growth at 100 µM [13]: -50%
- growth at 1 µM [14]: 60%
- growth at 1 µM [15]: 74%
- growth at 1 µM [16]: 94%
- growth at 100 µM [17]: -76%
- GI50 ([18]; read-out: GI50): 5.07 µM
- CC50 [18, 41]: > 100 µM
- TGI ([18]; read-out: TGI): > 100 µM
- GI50 ([18]; read-out: pGI50 (converted)): 5.01 µM
- CC50 [18, 42]: > 100 µM
- TGI ([18]; read-out: pTGI (converted)): > 100 µM
- growth at 1 µM [19]: 85%
- growth at 100 µM [20]: 2%
- growth at 100 µM [21]: -42%
- growth at 0.1 µM [22]: 97%
- GI50 ([23]; read-out: GI50): 1.7 µM
- CC50 [23, 41]: 72.7 µM
- TGI ([23]; read-out: TGI): 11.9 µM
- GI50 ([23]; read-out: pGI50 (converted)): 1.7 µM
- CC50 [23, 42]: 72.4 µM
- TGI ([23]; read-out: pTGI (converted)): 12 µM
- growth at 100 µM [24]: -47%
- growth at 0.1 µM [25]: 90%
- growth at 0.01 µM [26]: 104%
- GI50 ([27]; read-out: GI50): 2.92 µM
- CC50 [27, 41]: > 100 µM
- TGI ([27]; read-out: TGI): 20.6 µM
- GI50 ([27]; read-out: pGI50 (converted)): 2.95 µM
- CC50 [27, 42]: > 100 µM
- TGI ([27]; read-out: pTGI (converted)): 20.4 µM
- GI50 ([28]; read-out: GI50): 5.08 µM
- CC50 [28, 41]: > 100 µM
- TGI ([28]; read-out: TGI): > 100 µM
- GI50 ([28]; read-out: pGI50 (converted)): 5.13 µM
- CC50 [28, 42]: > 100 µM
- TGI ([28]; read-out: pTGI (converted)): > 100 µM
- growth at 100 µM [29]: -34%
- growth at 0.1 µM [30]: 87%
- growth at 0.01 µM [31]: 95%
- growth at 1 µM [32]: 46%
- growth at 1 µM [33]: 69%
- growth at 100 µM [34]: -25%
- growth at 0.1 µM [35]: 91%
- growth at 0.1 µM [36]: 96%
- growth at 0.1 µM [37]: 93%
- growth at 0.01 µM [38]: 101%
- growth at 100 µM [39]: 10%
- GI50 ([40]; read-out: GI50): 6.22 µM
- CC50 [40, 41]: > 100 µM
- TGI ([40]; read-out: TGI): > 100 µM
- GI50 ([40]; read-out: pGI50 (converted)): 6.17 µM
- CC50 [40, 42]: > 100 µM
- TGI ([40]; read-out: pTGI (converted)): > 100 µM

— ChEMBL document CHEMBL2413072, “Synthesis and in vitro anticancer studies of novel C-2 arylidene congeners of lantadenes” (2013)
